According to patent publication US20260250320A1, “LIPIDATED PEPTIDE INHIBITORS OF INTERLEUKIN-23 RECEPTOR” (Janssen Pharmaceutica NV, priority 2023, published 2026):
*1 amine or outer side, *2 acyl side, *3 side chain or, on linkers, in order; H or OH if unused. Where a SMILES comes first, the peptide text is derived from it. Bridges are numbered along the chain shown (N, C = ends). Side-chain parts run from the residue outwards. [ ]: non-standard residue; d: D form. The star is where a group is joined. X11 = CN(CC(N)=O)C(=O)[C@H](Cc1cccnc1)NC(O)[C@H](CC(N)=O)N*; Trp(7-Me) = Cc1cccc2c(C[C@H](N)C(=O)O)c[nH]c12; C18 diacid = O=C(O)CCCCCCCCCCCCCCCCC(=O)*; γGlu = O=C(O)[C@H](CCC(=O)[*:2])N[*:1]; 2Nal = N[C@@H](Cc1ccc2ccccc2c1)C(=O)O; AEF = NCCOc1ccc(C[C@H](N)C(=O)O)cc1; X2 = C[N+](C)(C)C[C@@H](CC(=O)O)N*; 3Pal = N[C@@H](Cc1cccnc1)C(=O)O; Pen = CC(C)(S)[C@H](N)C(=O)O; Suc = O=C(CCC(=O)[*:2])[*:1]; Thp = NC1(C(=O)O)CCOCC1; AEEA = NCCOCCOCC(=O)O; Sar = CNCC(=O)O

Columns and labels:
[1] = tested on: IL-23-stimulated phosphorylated STAT3 in peripheral blood mononuclear cells (PBMCs); experiment: PBMC pSTAT3 Assay; format: cell-based; settings: PBMCs from healthy donors; 30 min preincubation with peptide; IL-23 5 ng/mL for 30 min; phospho-STAT3 by MSD
Method in brief: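 Healthy-donor PBMCs expanded 4 days on anti-CD3 with 100 ng/mL IL-1β, starved ~4 h in RPMI-0.1% BSA, preincubated 30 min with peptide, then stimulated 30 min at 37 °C with 5 ng/mL IL-23. Lysate pSTAT3 measured by MSD phospho-STAT panel; IC50 derived.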

IL-23R = target: T1, IL-23R (Homo sapiens, UniProt Q5VWK5); experiment: IL23R Reporter Assay; format: cell-based; settings: HEK293 cells containing IL-23R, IL-12Rβ1 and STAT-inducible firefly luciferase reporter; 10 ng/mL IL-23 (EC90); 5 h
T1 construct: HEK293 cells containing IL-23R, IL-12Rβ1 and a firefly luciferase reporter gene driven by a STAT-inducible promoter (Promega); host or cells: HEK293
T1 sequence (Q5VWK5 24-629): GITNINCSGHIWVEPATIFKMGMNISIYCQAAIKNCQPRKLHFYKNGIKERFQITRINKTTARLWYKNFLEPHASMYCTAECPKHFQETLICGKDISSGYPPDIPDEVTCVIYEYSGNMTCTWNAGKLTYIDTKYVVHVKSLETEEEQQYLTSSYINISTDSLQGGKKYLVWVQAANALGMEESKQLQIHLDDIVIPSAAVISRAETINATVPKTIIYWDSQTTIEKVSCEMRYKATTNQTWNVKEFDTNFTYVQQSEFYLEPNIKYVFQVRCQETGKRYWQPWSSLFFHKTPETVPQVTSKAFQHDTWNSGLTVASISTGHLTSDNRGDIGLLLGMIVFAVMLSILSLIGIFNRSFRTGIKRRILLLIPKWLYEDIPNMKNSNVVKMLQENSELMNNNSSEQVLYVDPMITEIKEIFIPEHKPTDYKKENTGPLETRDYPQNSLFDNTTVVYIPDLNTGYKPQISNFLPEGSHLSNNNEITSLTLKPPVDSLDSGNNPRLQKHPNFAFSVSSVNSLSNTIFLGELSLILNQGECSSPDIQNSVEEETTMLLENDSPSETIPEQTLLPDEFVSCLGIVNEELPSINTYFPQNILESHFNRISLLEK
Method in brief: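 HEK293 cells carrying IL-23R, IL-12Rβ1 and a STAT-driven firefly luciferase reporter (4000 cells/well) received compound, then 10 ng/mL IL-23 solution (EC90), and were incubated for 5 h at 37° C. BioGlo luminescence was normalised to IL-23 alone (0%) and 30 μM control inhibitor (100%). IC50 came from a 4-parameter Hill fit.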

IC50 (IL-23R) [nM] | Compound | IC50 [1] [nM]
50 to 500 | CC(=O)N[C@H](CCCNC(=N)N)C(=O)N[C@@H]1C(=O)N[C@@H](CC(N)=O)C(=O)N[C@@H]([C@@H](C)O)C(=O)N[C@@H](Cc2c[nH]c3c(C)cccc23)C(=O)N[C@@H](CCCCNC(=O)CCC(=O)N[C@H](CC(=O)O)C[N+](C)(C)C)C(=O)N[C@H](C(=O)N[C@@H](Cc2ccc(OCCNC(=O)COCCOCCNC(=O)COCCOCCNC(=O)CC[C@H](NC(=O)CCCCCCCCCCCCCCCCC(=O)O)C(=O)O)cc2)C(=O)N[C@@H](Cc2ccc3ccccc3c2)C(=O)NC2(C(=O)N[C@@H](CCC(=O)O)C(=O)N[C@@H](CC(N)=O)C(=O)N[C@@H](Cc3cccnc3)C(=O)N(C)CC(N)=O)CCOCC2)C(C)(C)SSC1(C)C [compound 13, MeCO-r-Pen(3)-N-T-7MeW-K(d)-Pen(3)-AEF(PEG2gEC18OH)-2Nal-THP-E-N-3Pya-Sar-CONH2] (Ac-[dR][Pen]NT[Trp(7-Me)]K([Suc-X2])[Pen][AEF]([AEEA-AEEA-γGlu-C18 diacid])[2Nal][Thp]EN[3Pal][Sar]-NH2; disulfide 2-7) | 0.5 to 5
< 50 | CC(=O)NCCCC[C@@H]1NC(=O)[C@H](Cc2c[nH]c3c(C)cccc23)NC(=O)[C@H]([C@@H](C)O)NC(=O)[C@H](CC(N)=O)NC(=O)[C@@H](NC(C)=O)C(C)(C)SSC(C)(C)[C@@H](C(=O)N[C@@H](Cc2ccc(OCCN)cc2)C(=O)N[C@@H](Cc2ccc3ccccc3c2)C(=O)NC2(C(=O)N[C@@H](CCC(=O)O)C(=O)N[C@@H](CC(N)=O)C(=O)N[C@@H](Cc3cccnc3)C(=O)N(C)CC(=O)N[C@@H](CCCCNC(=O)CCOCCOCCOCCOCCOCCOCCOCCOCCOCCOCCOCCOCCNC(=O)CC[C@H](NC(=O)CCCCCCCCCCCCCCCCCCC(=O)O)C(=O)O)C(N)=O)CCOCC2)NC1=O [compound 103, MeCO-Pen(3)-N-T-7MeW-K(Ac)-Pen(3)-AEF-2Nal-THP-E-N-3Pya-Sar-K(PEG12gEC20OH)-CONH2] | < 0.5
50 to 500 | CC(=O)NCCCC[C@@H]1NC(=O)[C@H](Cc2c[nH]c3c(C)cccc23)NC(=O)[C@H]([C@@H](C)O)NC(=O)[C@H](CC(N)=O)NC(=O)[C@@H](NC(=O)[C@H](CCCCNC(=O)COCCOCCNC(=O)COCCOCCNC(=O)CC[C@H](NC(=O)CCCCCCCCCCCCCCCCC(=O)O)C(=O)O)CCCNC(=N)N)C(C)(C)SSC(C)(C)[C@@H](C(=O)N[C@@H](Cc2ccc(OCCN)cc2)C(=O)N[C@@H](Cc2ccc3ccccc3c2)C(=O)NC2(C(=O)N[C@@H](CCCCNC(=O)CCC(=O)N[C@H](CC(=O)O)C[N+](C)(C)C)C(=O)N[C@@H](CC(N)=O)C(=O)N[C@@H](Cc3cccnc3)C(=O)N(C)CC(N)=O)CCOCC2)NC1=O [compound 32, HOC18gEPEG2PEG2CO-r-Pen(3)-N-T-7MeW-K(Ac)-Pen(3)-AEF(d)-2Nal-THP-E-N-3Pya-Sar-CONH2] | < 0.5
50 to 500 | CC(=O)NCCCC[C@@H]1NC(=O)[C@H](Cc2c[nH]c3c(C)cccc23)NC(=O)[C@H]([C@@H](C)O)NC(=O)[C@H](CC(N)=O)NC(=O)[C@@H](NC(=O)[C@@H](CCCNC(=N)N)NC(=O)COCCOCCNC(=O)COCCOCCNC(=O)CC[C@H](NC(=O)CCCCCCCCCCCCCCCCC(=O)O)C(=O)O)C(C)(C)SSC(C)(C)[C@@H](C(=O)N[C@@H](Cc2ccc(OCCN)cc2)C(=O)N[C@@H](Cc2ccc3ccccc3c2)C(=O)NC2(C(=O)N[C@@H](CCCCNC(=O)CCC(=O)N[C@H](CC(=O)O)C[N+](C)(C)C)C(=O)N[C@@H](CC(N)=O)C(O)N[C@@H](Cc3cccnc3)C(=O)N(C)CC(N)=O)CCOCC2)NC1=O (stereo partly drawn) [compound 45, HOC18gEPEG2PEG2CO-r-Pen(3)-N-T-7MeW-K(Ac)-Pen(3)-AEF-2Nal-THP-K(d)-N-3Pya-Sar-CONH2] ({C18 diacid-γGlu-AEEA-AEEA}-[dR][Pen]NT[Trp(7-Me)]K(Ac)[Pen][AEF][2Nal][Thp]K([Suc-X2])-X11; disulfide 2-7) | < 0.5
